{
  "source": "patent EP0568946A1",
  "about": "“Compound TAN-1607A, its derivatives, their production, and use thereof” (TAKEDA CHEMICAL INDUSTRIES, LTD., priority 1992, dated 1993)",
  "test_system": "mice",
  "test": "Acute toxicity test using mice",
  "format": "in vivo",
  "settings": "100 mg/kg administered intraperitoneally",
  "protocol": "Further, no mice died in an acute toxicity test using mice in which the compound TAN-1607A (100 mg/kg) was administered intraperitoneally.",
  "data": [
    {"smiles": "CC(=O)OC(CCCC12OC(C(=O)O)C(O)(C(=O)O)C(C(=O)O)(O1)C(OC(=O)CCCCCCCC/C=C/c1ccccc1)C2O)C(C)C/C=C/c1ccccc1", "note": "(stereo not shown) [TAN-1607A]", "values": [
      {"measurement": "acute toxicity (mortality)", "result": "no mice died"}
    ]}
  ]
}
